Source: paper PMC6311682, “Design, Synthesis, and Biological Evaluation of 2-Nitroimidazopyrazin-one/-es with Antitubercular and Antiparasitic Activity” (Journal of Medicinal Chemistry, 2018)
≈ marks a conversion by molar mass, not a printed value. Read-outs that look alike come from different tables or passages of the source.

Key:
[1] = tested on: ESKAPE pathogens S. aureus (ATCC 43300), E. coli (ATCC 25922), K. pneumoniae (ATCC 700603), A. baumannii (ATCC 19606), P. aeruginosa (ATCC 27853); assay: Broth microdilution MIC assay, ESKAPE pathogens; type: cell-based
[2] = Broth microdilution MIC assay, ESKAPE pathogens; type: cell-based; conditions: S. aureus, E. coli, K. pneumoniae, A. baumannii, P. aeruginosa; read-out: antibacterial MIC ESKAPE
[3] = Kinetic solubility determination by LC-UV; conditions: room temperature, 1% DMSO
[4] = Mammalian cytotoxicity, liver HepG2 and kidney HEK293 cell lines stated together; conditions: human
[5] = tested on: C. difficile (630, ATCC BAA-1382); assay: Broth microdilution MIC assay, C. difficile; type: cell-based, Clostridium difficile; conditions: 630 ATCC BAA-1382, median MIC; for MIC: Clostridioides difficile, ATCCBAA1382, read-out: antibacterial MIC C. difficile
[6] = tested on: L. donovani MHOM/IN/80/DD8 (ATCC50212); assay: L. donovani DD8 intracellular (THP-1) amastigote assay; type: cell-based; conditions: Leishmania donovani
[7] = Mammalian cytotoxicity assay (resazurin), HEK293; conditions: human, HEK293 cells
[8] = tested on: E. histolytica (HM1:IMSS); assay: ATP-bioluminescence cell growth and survival assay, E. histolytica trophozoites; type: cell-based; conditions: Entamoeba histolytica
[9] = Mammalian cytotoxicity assay (resazurin), HepG2; conditions: human, HepG2 cells
M. tuberculosis (H37Rv) [10] = assay: M. tuberculosis H37Rv resazurin reduction microplate MIC assay, hypoxic conditions (0.1% oxygen); type: cell-based, Mycobacterium tuberculosis; conditions: H37Rv, hypoxia (0.1% oxygen); for MIC: Mycobacterium tuberculosis, read-out: antibacterial MIC M. tuberculosis hypoxia
[11] = tested on: C. albicans (ATCC 90028) and C. neoformans (H99, ATCC 208821); assay: Broth microdilution MIC assay, fungi; type: cell-based; conditions: for MIC: Candida albicans, read-out: antifungal MIC
[12] = tested on: T. b. brucei (strain 427, BS427); assay: 384-well resazurin viability assay, T. b. brucei bloodstream parasites; type: cell-based; conditions: Trypanosoma brucei, BS427, n = 2
M. tuberculosis (H37Rv) [13] = assay: M. tuberculosis H37Rv resazurin reduction microplate MIC assay, normoxic conditions; type: cell-based; conditions: Mycobacterium tuberculosis, normoxia, read-out: antibacterial MIC M. tuberculosis normoxia
G. lamblia (WB line) = assay: ATP-bioluminescence cell growth and survival assay, G. lamblia trophozoites; type: cell-based; conditions: Giardia duodenalis
in vitro [14] = conditions: human
in vitro [15] = conditions: human; remark: listed apart in the source
[16] = Caco-2 monolayer bidirectional permeability assay; conditions: human, Caco-2, pH 7.4
[17] = Plasma protein binding, ultrafiltration method; type: in vitro ADME; conditions: human plasma, % bound; for fraction unbound at 0.5 h, 5 µM: read-out: PPB (%) (converted)
HEK293 cells = tested on: HEK293 cells; parameters: method as in Jarrad et al. 2; conditions: ATCC CRL-1573; ref Jarrad et al. 2; read-out: cytotoxicity CC50 HEK 293; cited from earlier work
HepG2 cells = tested on: HepG2 cells; parameters: method as in Jarrad et al. 2; conditions: ATCC HB-8065; ref Jarrad et al. 2; read-out: cytotoxicity CC50 HepG2; cited from earlier work
in vitro [18] = conditions: human; remark: listed apart in the source
M. tuberculosis = conditions: cited from earlier work
[19] = PBS, pH 7.4, Solubility µM (PBS), PBS pH 7.4, 24 h
[20] = water, Solubility µM (H2O), 24 h
[21] = read-out: antiparasitic IC50 L. donovani
[22] = read-out: antiparasitic pIC50 ± SE L. donovani (converted)
[23] = read-out: antiparasitic IC50 E. histolytica
[24] = read-out: antiparasitic pIC50 ± SE E. histolytica (converted)
[25] = read-out: antiparasitic IC50 T. b. brucei
[26] = read-out: antiparasitic pIC50 ± SE T. b. brucei (converted)
[27] = read-out: antiparasitic IC50 G. lamblia
[28] = read-out: antiparasitic pIC50 ± SE G. lamblia (converted)

Row | Compound | antibacterial MIC ESKAPE [1] [mg/L] | MIC [2] [mg/L] | solubility at 24 h [3, 19] [µM] | solubility at 24 h [3, 20] [µM] | MIC [5] [mg/L] | IC50 [6, 21] [µM] | IC50 [6, 22] [µM] | CC50 at 24 h [7] [µM] | CC50 at 24 h [9] [µM] | also measured
1 | O=c1c2nc([N+](=O)[O-])cn2ccn1C1CCCCC1 [17t, 7-Cyclohexyl-2-nitroimidazo[1,2-a]pyrazin-8(7H)-one] | >32 | > 32 | < 10 | < 10 | > 64 | > 80 | > 79.4 | 112 | 123 | CC50 at 24 h ([4]; HepG2 and HEK293 cells): 98 to 123 µM; antibacterial MIC C. difficile [5]: >64 mg/L; IC50 [8, 23]: > 50 µM; IC50 [8, 24]: > 50.1 µM
2 | O=c1c2nccn2ccn1Cc1ccccc1 [20b, 7-Benzylimidazo[1,2-a]pyrazin-8(7H)-one] | – | > 32 | – | – | > 64 | > 80 | > 79.4 | > 100 | > 100 | MIC (M. tuberculosis (H37Rv) [10]): > 32 mg/L; MIC [11]: > 32 mg/L; IC50 [12, 25]: > 40 µM; IC50 [12, 26]: > 39.8 µM; MIC (M. tuberculosis (H37Rv) [13]): > 32 mg/L; IC50 (G. lamblia (WB line); [27]): > 25 µM; IC50 (G. lamblia (WB line); [28]): > 25.1 µM; IC50 [8, 23]: > 25 µM; IC50 [8, 24]: > 25.1 µM
3 | O=c1[nH]c(-c2ccccc2)cn2cc([N+](=O)[O-])nc12 [24a, 2-Nitro-6-phenylimidazo[1,2-a]pyrazin-8(7H)-one] | >32 | > 32 | – | – | > 64 | > 80 | > 79.4 | – | – | antifungal MIC [11]: >32 mg/L; MIC [11]: > 32 mg/L; CC50 (in vitro [14]): > 100 µM; antibacterial MIC C. difficile [5]: >64 mg/L; CC50 (in vitro [15]): > 100 µM
4 | Cc1ccc(CCn2ccn3cc([N+](=O)[O-])nc3c2=O)cc1 [17n, 7-(4-Methylphenethyl)-2-nitroimidazo[1,2-a]pyrazin-8(7H)-one] | >32 | > 32 | < 5 | < 5 | > 64 | > 80 | > 79.4 | – | – | MIC (M. tuberculosis (H37Rv) [13]): 4 mg/L (≈ 13.4 µM); antibacterial MIC C. difficile [5]: >64 mg/L; IC50 (G. lamblia (WB line); [27]): 1.6 to 3.2 µM; IC50 [8, 23]: > 50 µM; IC50 [8, 24]: > 50.1 µM
5 | O=c1c2nc([N+](=O)[O-])cn2ccn1Cc1cccc(OC(F)(F)F)c1 [17f, 2-Nitro-7-(3-(trifluoromethoxy)benzyl)imidazo[1,2-a]pyrazin-8(7H)-one] | > 32 | > 32 | < 5 | < 5 | – | > 80 | > 79.4 | – | – | Papp A→B at 2 h, 2 µM [16]: 240 nm/s; Papp A→B at 2 h, 2 μM [16]: > 200 nm/s; Papp B→A at 2 h, 2 µM [16]: 240 nm/s; fraction unbound at 0.5 h, 5 µM [17]: 0.01
6 | Cc1cn2cc([N+](=O)[O-])nc2c(OCc2ccc(OC(F)(F)F)cc2)n1 [25g, 6-Methyl-2-nitro-8-((4-(trifluoromethoxy)benzyl)oxy)imidazo[1,2-a]pyrazine] | >32 | > 32 | < 5 | < 5 | > 64 | > 80 | > 79.4 | > 100 | > 100 | antifungal MIC [11]: >32 mg/L; MIC [11]: > 32 mg/L; antibacterial MIC C. difficile [5]: >64 mg/L; fraction unbound at 30 min, 5 μM ([17]; read-out: PPB (%)): < 0.01
7 | O=c1c2nc([N+](=O)[O-])cn2ccn1Cc1ccc(F)cc1 [17e, 7-(4-Fluorobenzyl)-2-nitroimidazo[1,2-a]pyrazin-8(7H)-one] | >32 | > 32 | < 5 | < 5 | – | > 80 | > 79.4 | – | – | fraction unbound at 0.5 h, 5 µM [17]: 0.18
8 | Cc1cn2cc([N+](=O)[O-])nc2c(=O)n1Cc1ccc(OC(F)(F)F)cc1 [25f, 6-Methyl-2-nitro-7-(4-(trifluoromethoxy)benzyl)imidazo[1,2-a]pyrazin-8(7H)-one] | >32 | > 32 | < 5 | < 5 | > 64 | > 80 | > 79.4 | > 100 | > 100 | antifungal MIC [11]: >32 mg/L; MIC [11]: > 32 mg/L; antibacterial MIC C. difficile [5]: >64 mg/L; fraction unbound at 0.5 h, 5 µM [17]: 0.02
9 | O=c1c2nc([N+](=O)[O-])cn2ccn1Cc1ccc(OC(F)(F)F)cc1 [17c, 2-Nitro-7-(4-(trifluoromethoxy)benzyl)imidazo[1,2-a]pyrazin-8(7H)-one] | > 32 | > 32 | < 5 | < 5 | – | > 80 | > 79.4 | – | – | Papp A→B at 2 h, 2 µM [16]: 250 nm/s; Papp A→B at 2 h, 2 μM [16]: > 200 nm/s; Papp B→A at 2 h, 2 µM [16]: 220 nm/s; antibacterial MIC M. tuberculosis hypoxia (M. tuberculosis (H37Rv) [10]): 1.0 to 4.0 mg/L; fraction unbound at 0.5 h, 5 µM [17]: 0.02
10 | O=c1c2nc([N+](=O)[O-])cn2ccn1Cc1ccccc1 [17b, 7-Benzyl-2-nitroimidazo[1,2-a]pyrazin-8(7H)-one] | > 32 | > 32 | < 5 | < 5 | – | > 80 | > 79.4 | – | – | antibacterial MIC M. tuberculosis hypoxia (M. tuberculosis (H37Rv) [10]): 4.0 to 8.0 mg/L; CC50 at 24 h (in vitro [14]): 105 µM; CC50 at 24 h [4]: 98 to 123 µM
11 | O=c1c2nccn2ccn1Cc1ccc(F)cc1 [20c, 7-(4-Fluorobenzyl)imidazo[1,2-a]pyrazin-8(7H)-one] | – | > 32 | – | – | > 64 | > 80 | > 79.4 | > 100 | > 100 | MIC (M. tuberculosis (H37Rv) [10]): > 32 mg/L; MIC [11]: > 32 mg/L; IC50 [12, 25]: > 40 µM; IC50 [12, 26]: > 39.8 µM; MIC (M. tuberculosis (H37Rv) [13]): > 32 mg/L; IC50 (G. lamblia (WB line); [27]): > 50 µM; IC50 (G. lamblia (WB line); [28]): > 50.1 µM; IC50 [8, 23]: > 50 µM; IC50 [8, 24]: > 50.1 µM
12 | NC(=O)c1ncc([N+](=O)[O-])[nH]1 [16a] | – | – | – | – | – | – | – | – | – | MIC (M. tuberculosis (H37Rv) [10]): > 32 mg/L; MIC (M. tuberculosis (H37Rv) [13]): > 32 mg/L; CC50 (HEK293 cells): > 100 µM; CC50 (HepG2 cells): > 100 µM
13 | O=[N+]([O-])c1cn2c(n1)OC[C@@H](OCc1ccc(OC(F)(F)F)cc1)C2 [pretomanid 6, pretomanid, reference compound] | > 32 | – | – | – | – | – | – | > 100 | > 100 | solubility (physchem): 11.3 ± 3.07 µM (≈ 4.06 µg/mL); solubility (physchem; pH 7.4): 10.6 ± 1.76 µM (≈ 3.81 µg/mL); antifungal MIC [11]: > 32 mg/L; Papp A→B at 2 h, 2 µM (in vitro [18]; Caco-2, pH 7.4): 290 nm/s; Papp B→A at 2 h, 2 µM (in vitro [18]; Caco-2, pH 7.4): 220 nm/s
14 | CC(Cc1ccc(O)cc1)NCC(O)c1cc(O)cc(O)c1 (stereo not drawn) [fenoterol] | – | – | – | – | – | – | – | – | – | Papp A→B at 2 h, 2 µM (in vitro [18]; Caco-2, pH 7.4): 2.7 nm/s; recovery at 2 h, 2 µM (in vitro [18]; Caco-2, pH 7.4, mean recovery (%) A to B): 92%
15 | FC(F)(F)Oc1ccc(CO[C@@H]2COc3nccn3C2)cc1 [compound 9, S-des-nitro-PA-824] | – | – | – | – | – | – | – | – | – | MIC M. tuberculosis aerobic growth (M. tuberculosis; aerobic growth): > 160 µM; MIC M. tuberculosis anaerobic growth (M. tuberculosis; anaerobic growth): > 500 µM
16 | O=[N+]([O-])c1cn2c(n1)OC[C@H](OCc1ccc(OC(F)(F)F)cc1)C2 [(R)-PA-824 (8), (R)-PA-824] | – | – | – | – | – | – | – | – | – | activity against M. tuberculosis (M. tuberculosis): inactive
17 | O=c1c2nc([N+](=O)[O-])cn2ccn1CCc1ccc(OC(F)(F)F)cc1 [17m, 2-Nitro-7-(4-(trifluoromethoxy)phenethyl)imidazo[1,2-a]pyrazin-8(7H)-one] | >32 | > 32 | < 5 | < 5 | 64 (≈ 174 µM) | > 80 | > 79.4 | – | – | MIC (M. tuberculosis (H37Rv) [13]): 8 mg/L (≈ 21.7 µM); IC50 (G. lamblia (WB line); [27]): 1.6 to 3.2 µM; IC50 [8, 23]: > 50 µM; IC50 [8, 24]: > 50.1 µM
